# Source: patent US12331040B2 (Karyopharm Therapeutics Inc., priority 2013, dated 2025)
# Experiments:
# Experiment in all cases: MTT cell proliferation assay
# Format in all cases: cell-based
# MV-4-11 cells = details: Homo sapiens, MV4-11, 72-hour MTT
# Summary of the method: (§1)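 72-h MTT proliferation; 5,000-10,000 cells/well, overnight attachment; cpd 1 nM–30 μM, 8 concs; MTT ~4 h, formazan solubilized, OD490; % inhibition vs negative control, mean±SE, usually duplicate.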
# RL cells = details: Homo sapiens, 72-hour MTT
# Summary of the method: as §1
# SW-900 cells = details: Homo sapiens, SW900, 72-hour MTT
# Summary of the method: as §1
# BT-549 cells = details: Homo sapiens, 72-hour MTT
# Summary of the method: as §1
# MO7e cells = details: 72-hour MTT
# Summary of the method: as §1
# Farage cells = details: 72-hour MTT
# Summary of the method: as §1
# NCI-H1563 cells = details: Homo sapiens, 72-hour MTT
# Summary of the method: as §1
# SW-480 cells = details: Homo sapiens, SW480, 72-hour MTT
# Summary of the method: as §1
# HCC-2935 cells = details: Homo sapiens, HCC2935, 72-hour MTT
# Summary of the method: as §1
# PATU-8988T cells = details: Homo sapiens, 72-hour MTT
# Summary of the method: as §1
# Hs738.st cells = details: 72-hour MTT
# Summary of the method: as §1
# Daudi cells = details: Homo sapiens, 72-hour MTT
# Summary of the method: as §1
# NCI-H226 cells = details: Homo sapiens, 72-hour MTT
# Summary of the method: as §1
# Calu-6 cells = details: Homo sapiens, 72-hour MTT
# Summary of the method: as §1
# LS-174T cells = details: Homo sapiens, LS174T, 72-hour MTT
# Summary of the method: as §1
# RKO cells = details: Homo sapiens, 72-hour MTT
# Summary of the method: as §1
# Calu-3 cells = details: Homo sapiens, 72-hour MTT
# Summary of the method: as §1
# BT-474 cells = details: Homo sapiens, 72-hour MTT
# Summary of the method: as §1
# HCI-H358 cells = details: 72-hour MTT
# Summary of the method: as §1
# SW-948 cells = details: Homo sapiens, SW948, 72-hour MTT
# Summary of the method: as §1
# T47D cells = details: Homo sapiens, 72-hour MTT
# Summary of the method: as §1
# NCI-H929 cells = details: Homo sapiens, 72-hour MTT
# Summary of the method: as §1
# C6 cells = details: Rattus norvegicus, 72-hour MTT
# Summary of the method: as §1
# HH cells = details: Homo sapiens, 72-hour MTT
# Summary of the method: as §1
# SW-1116 cells = details: Homo sapiens, 72-hour MTT
# Summary of the method: as §1
# SNU-398 cells = details: Homo sapiens, 72-hour MTT
# Summary of the method: as §1
# MDA-MB-415 cells = details: Homo sapiens, 72-hour MTT
# Summary of the method: as §1
# MSTO-211H cells = details: Homo sapiens, 72-hour MTT
# Summary of the method: as §1
# MOLT4 cells = details: Homo sapiens, MOLT-4, 72-hour MTT
# Summary of the method: as §1
# A549 cells = details: Homo sapiens, 72-hour MTT
# Summary of the method: as §1
# Toledo cells = details: Homo sapiens, 72-hour MTT
# Summary of the method: as §1
# MINO cells = details: Homo sapiens, 72-hour MTT
# Summary of the method: as §1
# HCC-827 cells = details: Homo sapiens, HCC827, 72-hour MTT
# Summary of the method: as §1
# PATU-8902 cells = details: 72-hour MTT
# Summary of the method: as §1
# LN18 cells = details: Homo sapiens, LN-18, 72-hour MTT
# Summary of the method: as §1
# Panc-1 cells = details: Homo sapiens, 72-hour MTT
# Summary of the method: as §1
# THP1 cells = details: Homo sapiens, THP-1, 72-hour MTT
# Summary of the method: as §1
# SW-620 cells = details: Homo sapiens, 72-hour MTT
# Summary of the method: as §1
# PANC-10.05 cells = details: Homo sapiens, Panc1005, 72-hour MTT
# Summary of the method: as §1
# U118MG cells = details: Homo sapiens, U-118-MG, 72-hour MTT
# Summary of the method: as §1
smiles,measurement,setting,value
"Nc1ccc(/C=C/C(=O)NCc2cc3cc(-c4ccc(C(=O)N5CCC(F)(F)CC5)cn4)cc(C(F)(F)F)c3o2)cn1 [Compound 585, (E)-3-(6-aminopyridin-3-yl)-N-((5-(5-(4,4-difluoropiperidine-1-carbonyl)pyridin-2-yl)-7-(trifluoromethyl)benzofuran-2-yl)methyl)acrylamide]",IC50,MV-4-11 cells,90 nM
same,IC50,RL cells,210 nM
same,IC50,SW-900 cells,> 10000 nM
same,IC50,BT-549 cells,1530 nM
same,IC50,MO7e cells,20 nM
same,IC50,Farage cells,70 nM
same,IC50,NCI-H1563 cells,390 nM
same,IC50,SW-480 cells,480 nM
same,IC50,HCC-2935 cells,4390 nM
same,IC50,PATU-8988T cells,540 nM
same,IC50,Hs738.st cells,450 nM
same,IC50,Daudi cells,40 nM
same,IC50,NCI-H226 cells,6780 nM
same,IC50,Calu-6 cells,350 nM
same,IC50,LS-174T cells,8800 nM
same,IC50,RKO cells,50 nM
same,IC50,Calu-3 cells,330 nM
same,IC50,BT-474 cells,6470 nM
same,IC50,HCI-H358 cells,800 nM
same,IC50,SW-948 cells,910 nM
same,IC50,T47D cells,40 nM
same,IC50,NCI-H929 cells,930 nM
same,IC50,C6 cells,> 10000 nM
same,IC50,HH cells,90 nM
same,IC50,SW-1116 cells,970 nM
same,IC50,SNU-398 cells,4420 nM
same,IC50,MDA-MB-415 cells,1020 nM
same,IC50,MSTO-211H cells,250 nM
same,IC50,MOLT4 cells,40 nM
same,IC50,A549 cells,570 nM
same,IC50,Toledo cells,50 nM
same,IC50,MINO cells,110 nM
same,IC50,HCC-827 cells,780 nM
same,IC50,PATU-8902 cells,510 nM
same,IC50,LN18 cells,1660 nM
same,IC50,Panc-1 cells,840 nM
same,IC50,THP1 cells,20 nM
same,IC50,SW-620 cells,140 nM
same,IC50,PANC-10.05 cells,870 nM
same,IC50,U118MG cells,50 nM
